Here are results for twelve compounds from paper PMC12562854, “Resin Glycosides with α-Glucosidase and Protein Tyrosine Phosphatase 1B Inhibitory Activities from the Seeds of Cuscuta japonica” (Biomolecules, 2025).

Assay [1] deals with T1, α-glucosidase (Saccharomyces cerevisiae, UniProt P53341).
T1 construct: purchased Sigma-Aldrich Inc
Briefly: α-Glucosidase inhibitory assay (pNPG hydrolysis). The settings on record: for inhibition at 100 µM: read-out: α-Glucosidase Inhibition (%). Type of assay: biochemical. Here is the method: In brief, 140 μL of phosphate buffer (0.2 M, pH 6.8) was added to the 96-well microplate wells, followed by the addition of 10 μL α-glucosidase solution (0.5 U/mL, Sigma-Aldrich Inc., Saint Louis, MO, USA) and 2 μL of the test compound. The control wells contained 2 μL of DMSO in place of the test sample, while the enzyme solution was replaced by an additional 10 μL of phosphate buffer in the background wells. After preincubation at 37 °C for 10 min, 48 μL of 2 mM p-nitrophenyl-α-D-glucopyranoside (pNPG) was introduced into each well. The reaction mixtures were incubated for 30 min before being terminated by adding 50 μL of 0.1 M Na2CO3 solution. Absorbance was measured at 405 nm using a microplate reader. […] All assays were performed in triplicate and repeated three times independently.

For assay [2], the target named is T2, PTP1B (Homo sapiens, UniProt P18031).
T2 construct: purchased MedChemExpress LLC
T2 sequence (P18031 1-435): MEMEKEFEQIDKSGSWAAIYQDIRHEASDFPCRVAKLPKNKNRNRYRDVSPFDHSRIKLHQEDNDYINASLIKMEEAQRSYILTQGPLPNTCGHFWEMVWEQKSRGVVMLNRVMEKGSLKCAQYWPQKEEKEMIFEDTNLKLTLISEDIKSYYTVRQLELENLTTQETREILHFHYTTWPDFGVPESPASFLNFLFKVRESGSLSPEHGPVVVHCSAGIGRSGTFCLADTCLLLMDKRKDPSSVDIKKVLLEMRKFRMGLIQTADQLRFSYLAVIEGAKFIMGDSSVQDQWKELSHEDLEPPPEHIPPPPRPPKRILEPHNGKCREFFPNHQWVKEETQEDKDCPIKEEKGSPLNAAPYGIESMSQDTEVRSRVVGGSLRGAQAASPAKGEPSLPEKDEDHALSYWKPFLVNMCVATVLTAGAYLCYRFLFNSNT
In words: PTP1B inhibitory assay (pNPP hydrolysis). Type of assay: biochemical. Particulars: for IC50: mean ± SD of three independent experiments; for inhibition at 100 µM: percent inhibition at a concentration of 100 μM. Here is the method: The inhibitory activity against PTP1B was assessed via the p-nitrophenyl phosphate (pNPP) hydrolysis assay. The reaction buffer consisted of 50 mM citrate buffer (pH 6.0) supplemented with 0.1 M NaCl, 2 mM EDTA, and 1 mM DTT. Recombinant PTP1B enzyme (MedChemExpress LLC, Monmouth Junction, NJ, USA) was used at a concentration of 5 μg/mL, with 10 mM pNPP serving as the substrate. The enzymatic reaction was terminated by the addition of 1M NaOH.

Assay [3] relates to α-glucosidase. The settings on record: cited from earlier work; for α-Glucosidase inhibition (in words): affinity-directed fractionation-mass spectrometry.
The target of assay [4] is T1, α-glucosidase. In words: Enzyme reversibility and kinetics analysis, α-glucosidase. Type of assay: biochemical. As to the method:
(§1) Reversibility was assessed by plotting the enzyme reaction velocity (v) against varying enzyme concentrations in the presence of different inhibitor concentrations. Lineweaver–Burk plots (1/v vs. 1/[S]) were constructed by measuring reaction velocities at multiple substrate concentrations with varying amounts of inhibitors. From these plots, inhibition type, as well as Michaelis–Menten constants Km and Vmax, were determined. Additionally, slopes and Y-intercepts of these reciprocal plots were also plotted against inhibitor concentrations to further characterize the inhibition constants Ki and Kis, respectively.

The target of assay [5] is T2, PTP1B. Briefly: Enzyme reversibility and kinetics analysis, PTP1B. The class given is biochemical. Here is the method:
as §1

The mark [6] stands for this setting: read-out: α-Glucosidase IC50, mean ± SD of three independent experiments.
[7] abbreviates: secondary plot of Y-intercept from Lineweaver–Burk data.
[8] abbreviates: velocity vs enzyme concentration at different inhibitor levels.

Where two headings read alike, the source gives them in different places. Some results are limits rather than exact numbers.

T1 sequence (P53341 whole entry): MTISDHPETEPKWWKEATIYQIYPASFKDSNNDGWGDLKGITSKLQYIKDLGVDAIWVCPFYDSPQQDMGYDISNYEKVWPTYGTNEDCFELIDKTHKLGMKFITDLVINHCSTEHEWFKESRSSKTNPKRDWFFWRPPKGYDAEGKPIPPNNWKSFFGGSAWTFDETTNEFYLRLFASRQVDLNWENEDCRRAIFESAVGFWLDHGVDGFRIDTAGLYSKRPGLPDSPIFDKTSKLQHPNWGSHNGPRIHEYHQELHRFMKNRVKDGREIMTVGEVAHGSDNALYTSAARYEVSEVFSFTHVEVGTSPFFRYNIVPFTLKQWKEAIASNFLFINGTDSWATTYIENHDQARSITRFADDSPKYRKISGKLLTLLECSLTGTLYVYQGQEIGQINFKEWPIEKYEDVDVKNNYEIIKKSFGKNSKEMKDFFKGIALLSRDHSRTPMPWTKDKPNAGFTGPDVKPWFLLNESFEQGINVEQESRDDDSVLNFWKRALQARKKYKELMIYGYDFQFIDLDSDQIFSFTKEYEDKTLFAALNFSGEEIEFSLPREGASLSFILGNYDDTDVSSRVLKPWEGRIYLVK

As for `CCCC[C@@H](CCCCCCCCCC(=O)OC)O[C@@H]1O[C@H](CO)[C@@H](O)[C@H](O)[C@H]1O[C@@H]1O[C@@H](C)[C@H](O[C@@H]2O[C@@H](C)[C@H](O[C@@H]3O[C@@H](C)[C@H](O)[C@@H](O[C@@H]4O[C@H](CO)[C@@H](O)[C@H](O)[C@H]4O)[C@H]3O)[C@@H](O)[C@H]2O)[C@@H](O)[C@H]1O` [Compound 1, Cusponin I], the IC50 on α-glucosidase [1] (setting [6]) was 38.2 ± 3.36 µM; at PTP1B [2] it was more than 100 µM. The inhibition at 100 µM is 68.7 ± 4.11% on α-glucosidase [1] and 5.41 ± 0.67% against PTP1B [2].

On to `CCCC[C@@H](CCCCCCCCCC(=O)OC)O[C@@H]1O[C@H](C)[C@H](O)[C@H](O)[C@H]1O[C@@H]1O[C@H](CO)[C@@H](O)[C@H](O[C@@H]2O[C@H](CO)[C@@H](O)[C@H](O)[C@H]2O)[C@H]1O[C@@H]1O[C@@H](C)[C@H](OC(=O)[C@H](C)[C@@H](C)OC(=O)[C@H](C)[C@@H](C)O)[C@@H](O)[C@H]1O` [Compound 5, Cusponin V], for which the values for the IC50 on α-glucosidase [1] (setting [6]) and against PTP1B [2] were more than 100 µM and 62.3 ± 8.61 µM, respectively. Also, the inhibition at 100 µM on α-glucosidase [1] was 51.8 ± 1.77%; at PTP1B [2], 52.7 ± 4.6%.

Consider `CCC[C@H]1CCCCCCCCCC(=O)O[C@H]2[C@H](O[C@H]3[C@H](O)[C@@H](C)O[C@@H](O[C@H]4[C@H](O1)O[C@H](C)[C@@H](O)[C@@H]4O)[C@@H]3O[C@@H]1O[C@@H](C)[C@H](OC(C)=O)[C@@H](O)[C@H]1O)O[C@H](C)[C@@H](O)[C@@H]2OC(=O)[C@H](C)[C@@H](C)O` [albinoside VII], for which the “α-Glucosidase inhibition (in words)” value in the assay on α-glucosidase [3] is recorded as “potent α-glucosidase inhibitors”.

Turning to `CCC[C@H]1CCCCCCCCCC(=O)O[C@H]2[C@H](OC[C@H]3O[C@@H](O[C@H]4[C@H](O1)O[C@H](C)[C@@H](O)[C@@H]4O)[C@H](O[C@@H]1O[C@@H](C)[C@H](OC(C)=O)[C@@H](O)[C@H]1O)[C@@H](O)[C@@H]3O)O[C@H](C)[C@@H](O)[C@@H]2OC(=O)[C@H](C)[C@@H](C)O` [albinoside VI], in the assay on α-glucosidase [3], the “α-Glucosidase inhibition (in words)” value was “potent α-glucosidase inhibitors”.

On to `CCCCC[C@@H](CCCCCCCCCC(=O)OC)O[C@@H]1O[C@H](CO)[C@@H](O)[C@H](O)[C@H]1O[C@@H]1O[C@@H](C)[C@H](O[C@@H]2O[C@@H](C)[C@H](O[C@@H]3O[C@@H](C)[C@H](O)[C@@H](O)[C@H]3O)[C@@H](O[C@@H]3O[C@H](CO)[C@@H](O)[C@H](O)[C@H]3O)[C@H]2O)[C@@H](O)[C@H]1O` [Compound 8, operculinic acid B methyl ester], for which the IC50 is 65.1 ± 9.41 µM at α-glucosidase [1] (setting [6]) and more than 100 µM on PTP1B [2]. Besides, the inhibition at 100 µM on α-glucosidase [1] was found to be 64.6 ± 3.12%; against PTP1B [2], 7.78 ± 1.98%.

`C[C@H]1[C@H](C)CC[C@]2(C(=O)O)CC[C@]3(C)C(=CC[C@@H]4[C@@]5(C)CC[C@H](O)C(C)(C)[C@@H]5CC[C@]43C)[C@H]12` [Ursolic acid, ursolic acid, reference compound] registered an inhibition at 100 µM against PTP1B [2] of 90.4 ± 5.23%.

Consider `CCCC[C@@H](CCCCCCCCCC(=O)OC)O[C@@H]1O[C@H](C)[C@H](O)[C@H](O)[C@H]1O[C@@H]1O[C@@H](C)[C@H](O[C@@H]2O[C@@H](C)[C@H](O[C@@H]3O[C@@H](C)[C@H](O)[C@@H](O)[C@H]3O)[C@@H](O[C@@H]3O[C@H](CO)[C@@H](O)[C@H](O)[C@H]3O)[C@H]2O)[C@@H](O)[C@H]1O` [Compound 4, Cusponin IV], for which the IC50 is 55.5 ± 6.89 µM on α-glucosidase [1] (setting [6]) and more than 100 µM at PTP1B [2]. The inhibition at 100 µM at α-glucosidase [1] turned out to be 66.5 ± 3.65%; against PTP1B [2], 15 ± 2.45%.

With `CCCCC[C@@H](CCCCCCCCCC(=O)OC)O[C@@H]1O[C@H](CO)[C@@H](O)[C@H](O)[C@H]1O[C@@H]1O[C@@H](C)[C@H](O[C@@H]2O[C@@H](C)[C@H](O[C@@H]3O[C@@H](C)[C@H](O)[C@@H](O[C@@H]4O[C@H](CO)[C@@H](O)[C@H](O)[C@H]4O)[C@H]3O)[C@@H](O)[C@H]2O)[C@@H](O)[C@H]1O` [Compound 2, Cusponin II], on α-glucosidase [1], the midpoint of inhibition, the IC50, lay at 8.02 ± 2.9 µM and the inhibition at 100 µM is 83 ± 0.84%. At PTP1B [2], the IC50 is more than 100 µM and 100 µM produced 3.26 ± 0.16% inhibition. At α-glucosidase [4] (Lineweaver–Burk plots), the “Inhibition type, α-glucosidase” value is listed as “uncompetitive”. Moreover, the “Vmax of α-glucosidase in presence of inhibitor” value on α-glucosidase [4] (at 16 μM compound 2 (0.115 at 0 μM)) came out at 0.021. Further, on α-glucosidase [4] (setting [7]), the “Inhibition constant Kis (enzyme–substrate complex), α-glucosidase” value came to 3.02 µM. For the same compound, the “Reversibility of α-glucosidase inhibition” value at α-glucosidase [4] (setting [8]) is reported as “reversible”.

For the compound `CCCC[C@@H](CCCCCCCCCC(=O)OC)O[C@@H]1O[C@H](C)[C@H](O)[C@H](O)[C@H]1O[C@@H]1O[C@H](CO)[C@@H](O)[C@H](O[C@@H]2O[C@H](CO)[C@@H](O)[C@H](O)[C@H]2O)[C@H]1O[C@@H]1O[C@@H](C)[C@H](OC(=O)[C@H](C)[C@@H](C)O)[C@@H](O)[C@H]1O` [Compound 6, Cusponin VI], the results for the IC50 at α-glucosidase [1] (setting [6]) and against PTP1B [2] were 71.4 ± 3.23 µM and more than 100 µM, respectively. For the same compound, the figures for the inhibition at 100 µM at α-glucosidase [1] and against PTP1B [2] were 60.5 ± 5.42% and 29.9 ± 4.5%, respectively.

Take `CCCC[C@@H](CCCCCCCCCC(=O)OC)O[C@@H]1O[C@H](CO)[C@@H](O)[C@H](O)[C@H]1O[C@@H]1O[C@@H](C)[C@H](O[C@@H]2O[C@@H](C)[C@H](O[C@@H]3O[C@@H](C)[C@H](O)[C@@H](O)[C@H]3O)[C@@H](O[C@@H]3O[C@H](CO)[C@@H](O)[C@H](O)[C@H]3O)[C@H]2O)[C@@H](O)[C@H]1O` [Compound 3, Cusponin III]: the IC50 on α-glucosidase [1] (setting [6]) stood at 64.9 ± 2.97 µM; on PTP1B [2], 14.2 ± 1.29 µM. The values for the inhibition at 100 µM at α-glucosidase [1] and against PTP1B [2] were 67.1 ± 1.18% and 89.2 ± 2.55%, respectively. For the same compound, the “Inhibition type, PTP1B” value at PTP1B [5] (Lineweaver–Burk plot) is recorded as “mixed-type”. Also, the “Vmax of PTP1B in presence of inhibitor” value on PTP1B [5] (at 25 μM compound 3 (0.104 at 0 μM)) turned out to be 0.075. Moreover, the “Inhibition constant Kis (enzyme–substrate complex), PTP1B” value on PTP1B [5] (setting [7]) amounted to 64.24 µM. Also, on PTP1B [5] (secondary plot of slope from Lineweaver–Burk data, read-out: Inhibition constant Ki (free enzyme), PTP1B), the Ki came to 24.8 µM. Also, the “Reversibility of PTP1B inhibition” value on PTP1B [5] (setting [8]) is “reversible”.

Consider operculinic acid A, for which the IC50 at α-glucosidase [3] (from Ipomoea biflora) is 78.3 µM.

Regarding `CCCC[C@@H](CCCCCCCCCC(=O)OC)O[C@@H]1O[C@H](C)[C@H](O)[C@H](O)[C@H]1O[C@@H]1O[C@H](CO)[C@@H](O)[C@H](O[C@@H]2O[C@H](CO)[C@@H](O)[C@H](O)[C@H]2O)[C@H]1O[C@@H]1O[C@@H](C)[C@H](O)[C@@H](O)[C@H]1O` [Compound 7, Cusponin VII], the IC50 on α-glucosidase [1] (setting [6]) and on PTP1B [2] was more than 100 µM throughout. Moreover, the inhibition at 100 µM on α-glucosidase [1] is 49.4 ± 1.71%; against PTP1B [2] it was 15.9 ± 2.92%.

Usually IC50 stands for the concentration needed to halve the response being measured. As a reminder, the inhibition is the change of the read-out against control, counted positive when it falls. Usually Ki stands for the dissociation constant of the complex between target and ligand, obtained from inhibition or displacement.
